Marks after values point to notes of the source that are not given here.
What was measured:
[1] = test system: CFSE-labeled peripheral blood lymphocytes (CD3+, CD3+/CD4+, CD3+/CD8+ T cells); test: CFSE dye dilution proliferation measured by flow cytometry; format: cell-based, human; conditions: for proliferative ratio (PR, %M2/%M1): mean +/- SEM
Protocol: Cell surface marker staining was performed. The following monoclonal antibodies were used: Phycoerythin (PE) conjugated anti-human CD4, Tricolor-conjugated anti-human CD3, Allophycocyanin (APC) conjugated anti-human CD8 (Caltag, Burlingame, Calif.). The vital dye TO-PRO®-3 (Molecular Probes Inc., Eugene, Oreg.) was used to discriminate live and dead cells.
The CFSE labeling method was adapted from a previously described protocol. Aliquots of the same PBL sample used in the BeLPT assay were split and washed three times in 10 ml of phosphate buffered saline (dPBS, Gibco BRL, Grand Island, N.Y.) at room temperature. The cells were adjusted to 10^6 cells per milliliter, and CFSE (Molecular Probes, Eugene, Oreg.) was added at a final concentration of 1 μM/ml. The cells were vortexed for ten seconds and then incubated for ten minutes in the dark at room temperature with gentle shaking. After incubation an equal volume of sterile, heat inactivated human serum (Gibco BRL, Grand Island, N.Y.) was added to the sample for one minute to quench the reaction. The cells were washed twice, adjusted to the concentration 2×10^6/ml in 10% human heat inactivated serum.
Following CFSE (carboxy fluorescein diacetate succinimide ester) labeling, the cells were cultured in 24-well plates at 2×10^6 per well in the presence of either media alone, PHA, Candida, or either 10 or 100 μM of beryllium sulfate. The cells were incubated for seven days at 37° C. and 5% CO2. Preliminary experiments titrated the optimal dose of CFSE and time of incubation. Surface labeling was performed at the time of harvest using CD3TC, CD4PE and CD8APC in some experiments. TO-PRO®-3 was added to define live cells in some experiments.
All data were acquired on a four-color, dual laser FACSCalibur (Becton Dickinson, San Jose, Calif.). CFSE was measured in Fl-1 channel (530/30-nm bandpass filter), CD4PE in the Fl-2 channel (585/42-nm bandpass filter), CD3TC in the Fl-3-channel (670-nm longpass filter) using excitation from the 488 nm blue laser and TO-PRO®-3 or CD8APC in Fl-4 channel (661/16 bandpass filter) by excitation using the 635 nm red diode laser. Compensation for CFSE in multiparameter flow cytometry is dose dependent and determined empirically.
The basic analysis gating strategy was as follows (FIG. 1): for analysis of CD3+ T cells alone, an initial region was defined as lymphocytes by light scatter and a broad region was set to include medium to high forward/low side scatter events after stimulation with PHA (FIG. 1A, R1) to include all proliferating lymphocytes. For CD3+ T cells, the R1 data were plotted in a contour plot of CD3TC versus TO-PRO®-3 to identify the live CD3+ T Cells (FIG. 1B, R2). The R2 population was expressed on a contour plot of CD3+CD4+ where a double positive region was defined as R3 (FIG. 1C). For final analyses, each population was then analyzed for CFSE (FL1) fluorescence, representing proliferation, on a single parameter histogram using a logical gate of either R1*R2 for CD3+ cells only and R1*R2*R3 for CD3+4+ cells. In experiments where only data from CD3+ or CD3+4+ cells were collected, a live gate on TO-PRO®-3 negative (“viable”) cells was also used in acquisition. When specific CD4+ and CD8+ T cell determination was performed, the viability dye was eliminated. The strategy was similar to that above with light scatter gating (R1) followed by identification of the CD3+ events using a SSC vs CD3+ plot (R2) and CD4+ (R3) and CD8+(R4) identification followed by single parameter histogram analysis of the CFSE fluorescence (for CD4+, R1*R2*R3; for CD8, R1*R2*R4*).
CFSE flow cytometric data files were analyzed using CellQuest™ acquisition/analysis software (Becton Dickinson, San Jose, Calif.). Fifty thousand (50,000) events were collected. The data are reported as the proliferative ratio (PR) defined as the ratio of the percentage of divided cells to undivided cells on day 7 (%M2/%M1). […]

[2] = test system: Peripheral blood lymphocytes (PBLs); test: Blood BeLPT (3H-thymidine incorporation assay); format: cell-based, human; conditions: for stimulation index (SI): mean ± SEM
Protocol: Beryllium workers (present and former), referred to the Hospital of the University of Pennsylvania (HUP) for possible CBD, were tested. […] CBD was diagnosed when there was evidence of BH with granulomas on biopsy and/or radiologic changes consistent with a granulomatous process. Normal unexposed volunteers were used as controls.
Peripheral blood lymphocytes (PBLs) were isolated from heparinized blood under sterile conditions using density centrifugation with lymphocyte separation medium (ICN Biomedicals Inc., Aurora, Ohio). Blood BeLPT was performed. The cells were cultured at a concentration of 2.5×10^5 cells/well. Stimulants included 500 μg/ml of phytohemagglutinin (PHA) (L-9132; Sigma Chemical Co., St Louis, Mo.), 20 μl/ml of Candida(M15; Greer Labs, Lenoir, N.C.) and 100 μM or 10 μM of beryllium sulfate (Blush Wellman, Cleveland, OH). After culturing the cells in an incubator (5% CO2 and 37° C.) for 3, 5 or 7 days, the cells were pulsed with ^3H thymidine (DuPont NEN, Boston, Mass.) overnight (ice. 16-24 hours) and then harvested on a filter fiber (Wallac, Turku, Finland). The uptake of ^3H thymidine was measured as counts per minute (CPM) using a Wallac 1205 beta plate liquid scintillation system (Wallac Inc., Gaithersburg, Md.). Results were expressed as a stimulation index (SI=mean CPM of test wells/mean CPM of control wells). A positive response was defined as a SI>3.0 for blood A positive test required that a positive response be recorded on two different days or at two different concentrations of beryllium.
All values are presented as ± SEM (standard error of the mean). Data are only presented if a minimum of 1,000 cells were detected within a population. For the tritiated thymidine test, the results were expressed as a stimulation index and group differences (between controls and beryllium-sensitive populations) were evaluated using the Student's T test. For the CFSE tests, since the results were expressed as PR, the Mann-Whitney version of the […] was used to determine if there was a difference between the normal donors and the beryllium exposed patients. Statistical significance was defined as p<0.05.

O=S(=O)([O-])[O-].[Be+2] [Be, beryllium sulfate]
CFSE-determined response, sensitized versus controls (in words) ([1]; CD3+ and CD3+/CD4+ T cells from beryllium-sensitized subjects, both doses): significant difference
CFSE-determined response (in words) ([1]; CD3+ or CD3+/CD4+ high cells from controls, 10 or 100 μM): minimal response
proliferative ratio (PR, %M2/%M1) ([1]; CD3+/CD4+, Be 10 μM, day 7, beryllium-exposed sensitized (n = 24)): 0.105 ± 0.038
proliferative ratio (PR, %M2/%M1) ([1]; CD3+/CD4+, Be 10 μM, day 7, normal controls (n = 9)): 0.027 ± 0.005
proliferative ratio (PR, %M2/%M1) ([1]; CD3+/CD4+, Be 100 μM, day 7, beryllium-exposed sensitized (n = 24)): 0.089 ± 0.027
proliferative ratio (PR, %M2/%M1) ([1]; CD3+/CD4+, Be 100 μM, day 7, normal controls (n = 9)): 0.029 ± 0.010
proliferative ratio (PR, %M2/%M1) ([1]; CD3+, Be 10 μM, day 7, beryllium-exposed sensitized (n = 24)): 0.115 ± 0.046
proliferative ratio (PR, %M2/%M1) ([1]; CD3+, Be 10 μM, day 7, normal controls (n = 9)): 0.027 ± 0.005
proliferative ratio (PR, %M2/%M1) ([1]; CD3+, Be 100 μM, day 7, beryllium-exposed sensitized (n = 24)): 0.099 ± 0.026
proliferative ratio (PR, %M2/%M1) ([1]; CD3+, Be 100 μM, day 7, normal controls (n = 9)): 0.030 ± 0.008
CFSE-determined response, sensitized versus normal donors (in words) ([1]; CD8+ T cells, normal donors or beryllium-sensitized individuals): no differences were noted
proliferative ratio (PR, %M2/%M1) ([1]; Table 3 series (CD8 APC staining), CD3+, Be 10 μM, beryllium-exposed sensitized (n = 14)): 0.156 +/− 0.114‡
proliferative ratio (PR, %M2/%M1) ([1]; Table 3 series (CD8 APC staining), CD3+, Be 10 μM, normal controls (n = 6)): 0.012 +/− 0.002^†
proliferative ratio (PR, %M2/%M1) ([1]; Table 3 series (CD8 APC staining), CD3+, Be 100 μM, beryllium-exposed sensitized (n = 14)): 0.188 +/− 0.137‡
proliferative ratio (PR, %M2/%M1) ([1]; Table 3 series (CD8 APC staining), CD3+, Be 100 μM, normal controls (n = 6)): 0.013 +/− 0.002
proliferative ratio (PR, %M2/%M1) ([1]; Table 3 series, CD4+ (CD3+/CD4+), Be 10 μM, beryllium-exposed sensitized (n = 14)): 0.164 +/− 0.112‡
proliferative ratio (PR, %M2/%M1) ([1]; Table 3 series, CD4+ (CD3+/CD4+), Be 10 μM, normal controls (n = 6)): 0.015 +/− 0.003
proliferative ratio (PR, %M2/%M1) ([1]; Table 3 series, CD4+ (CD3+/CD4+), Be 100 μM, beryllium-exposed sensitized (n = 14)): 0.210 +/− 0.114‡
proliferative ratio (PR, %M2/%M1) ([1]; Table 3 series, CD4+ (CD3+/CD4+), Be 100 μM, normal controls (n = 6)): 0.015 +/− 0.002
proliferative ratio (PR, %M2/%M1) ([1]; Table 3 series, CD8+ (CD3+/CD8+), Be 10 μM, beryllium-exposed sensitized (n = 11)): 0.016 +/− 0.003
proliferative ratio (PR, %M2/%M1) ([1]; Table 3 series, CD8+ (CD3+/CD8+), Be 10 μM, normal controls (n = 4)): 0.013 +/− 0.003
proliferative ratio (PR, %M2/%M1) ([1]; Table 3 series, CD8+ (CD3+/CD8+), Be 100 μM, beryllium-exposed sensitized (n = 11)): 0.019 +/− 0.002
proliferative ratio (PR, %M2/%M1) ([1]; Table 3 series, CD8+ (CD3+/CD8+), Be 100 μM, normal controls (n = 4)): 0.011 +/− 0.004
CFSE-determined response (in words) ([1]; beryllium-sensitive population, CD3+ population, 10 μM, p<0.05): significant positive response
CFSE-determined response (in words) ([1]; beryllium-sensitive population, CD3+/CD4+ population, 10 μM and 100 μM, p<0.05): significant positive response
stimulation index (SI) ([2]; Day 5, Be 10 μM, beryllium-exposed sensitized (n = 24)): 12.1 ± 3.96
stimulation index (SI) ([2]; Day 5, Be 10 μM, normal controls (n = 9)): 0.72 ± 0.08
stimulation index (SI) ([2]; Day 5, Be 100 μM, beryllium-exposed sensitized (n = 24)): 12.8 ± 4.93
stimulation index (SI) ([2]; Day 5, Be 100 μM, normal controls (n = 9)): 0.74 ± 0.09
stimulation index (SI) ([2]; Day 7, Be 10 μM, beryllium-exposed sensitized (n = 24)): 12.5 ± 4.43
stimulation index (SI) ([2]; Day 7, Be 10 μM, normal controls (n = 9)): 0.44 ± 0.08
stimulation index (SI) ([2]; Day 7, Be 100 μM, beryllium-exposed sensitized (n = 24)): 11.5 ± 4.86
stimulation index (SI) ([2]; Day 7, Be 100 μM, normal controls (n = 9)): 0.52 ± 0.12
proliferative response by thymidine incorporation (in words) ([2]; beryllium-sensitized population, p<0.05): positive responses were noted
proliferative response by thymidine incorporation (in words) ([2]; control group): positive responses to beryllium were not noted

phytohemagglutinin [PHA]
CFSE-determined response (in words) ([1]; CD3+ and CD3+CD4+ cells from both the control and the beryllium-sensitive populations): positive responses
CFSE-determined response (in words) ([1]; CD3+, CD3+/CD4+ and CD3+/CD8+ T cells from controls (n=6) and beryllium-sensitized (n=14) populations): responded
proliferative ratio (PR, %M2/%M1) ([1]; CD3+/CD4+, PHA, day 7, beryllium-exposed sensitized (n = 24)): 15.756 ± 5.094
proliferative ratio (PR, %M2/%M1) ([1]; CD3+/CD4+, PHA, day 7, normal controls (n = 9)): 10.064 ± 2.753
proliferative ratio (PR, %M2/%M1) ([1]; CD3+, PHA, day 7, beryllium-exposed sensitized (n = 24)): 10.358 ± 4.730
proliferative ratio (PR, %M2/%M1) ([1]; CD3+, PHA, day 7, normal controls (n = 9)): 9.853 ± 2.908
stimulation index (SI) ([2]; Day 3, PHA 500 μg/ml, beryllium-exposed sensitized (n = 24)): 178 ± 23.2
stimulation index (SI) ([2]; Day 3, PHA 500 μg/ml, normal controls (n = 9)): 137 ± 38.9
proliferative response by thymidine incorporation (in words) ([2]; control and beryllium-sensitized populations, PHA on day 3, Candida on day 5 and on day 7): Positive responses

Reference: patent US8071325B2, “Flow cytometric method and kit for metal-induced sensitivity” (The Trustees of the University of Pennsylvania, priority 2004, dated 2011)
